Data taken from patent US10080756B2, “Combination methods for treating cancers” (Gilead Sciences, Inc., priority 2014, dated 2018).

How the values were obtained:
Format in all cases: cell-based
WSU-NHL = assay: Cell Titer Glo viability assay, WSU-NHL; details: Homo sapiens, FL, single agent, 72 hours, read-out: Inhibition of Viability, EC50
Method: (§1) All procedures were performed at Gilead Sciences, Inc. in Branford, The compound of formula (I), cyclophosphamide, doxorubicin and vincristine sulfate were dissolved in DMSO to prepare stock solutions that were serially diluted three-fold in DMSO in a 96 well plate format at 1000× so the final starting assay concentrations tested would be 10 μM, 200 μM, 10 μM, and 1 μM respectively, for each compound. Compound plates were diluted 1:100 in RPMI without serum or additives creating a 10× stock. Cells were seeded into a 96-well plate at 10,000-20,000 cells per well in 100 μl of growth media appropriate to the cell line supplemented with 100 U/L penicillin-streptomycin. OCI-Ly3, OCI-Ly4 and OCI-Ly7 were grown in Iscove's+20% FBS, OCI-Ly19 was grown in alphaMEM+20% FBS, and all other cell lines were grown in RPMI+10% FBS. To each well, 11 μl of 10× compound was added in a final concentration of 0.1% DMSO and cells were incubated at 37° C. in 5% CO2 for 72 hours. Cell viability was assessed with Cell Titer Glo (Promega, Madison, Wis.) following the manufacturer's protocol on an Envision plate reader (Perkin Elmer, Waltham, Mass.). EC50 values were determined using a four parameter variable slope model with GraphPad Prism 6.0 software. All EC50 values represent mean values of from duplicate dose response curves.

Pfeiffer = assay: Cell Titer Glo viability assay, Pfeiffer; details: Homo sapiens, DLBCL, single agent, 72 hours, read-out: Inhibition of Viability, EC50
Method: as §1

SU-DHL-6 = assay: Cell Titer Glo viability assay, SU-DHL-6; details: Homo sapiens; SU-DHL-6, DLBCL; single agent; 72 hours; read-out: Inhibition of Viability, EC50
Method: as §1

WSU-FSCCL = assay: Cell Titer Glo viability assay, WSU-FSCCL; details: WSU-FSCCL, FL; single agent; 72 hours; read-out: Inhibition of Viability, EC50
Method: as §1

OCI-LY4 = assay: Cell Titer Glo viability assay, OCI-LY4; details: OCI-LY4, DLBCL; single agent; 72 hours; read-out: Inhibition of Viability, EC50
Method: as §1

KMS-11 = assay: Cell Titer Glo viability assay, KMS-11; details: Homo sapiens; KMS-11, MM; single agent; 72 hours; read-out: Inhibition of Viability, EC50
Method: as §1

OPM-2 = assay: Cell Titer Glo viability assay, OPM-2; details: Homo sapiens; OPM-2, MM; single agent; 72 hours; read-out: Inhibition of Viability, EC50
Method: as §1

Karpas 422 = assay: Cell Titer Glo viability assay, Karpas 422; details: Homo sapiens; Karpas 422, DLBCL; single agent; 72 hours; read-out: Inhibition of Viability, EC50
Method: as §1

Mino = assay: Cell Titer Glo viability assay, Mino; details: Homo sapiens; Mino, MCL; single agent; 72 hours; read-out: Inhibition of Viability, EC50
Method: as §1

SU-DHL-10 = assay: Cell Titer Glo viability assay, SU-DHL-10; details: Homo sapiens, SU-DHL10; SU-DHL-10, DLBCL; single agent; 72 hours; read-out: Inhibition of Viability, EC50
Method: as §1

MM1.S = assay: Cell Titer Glo viability assay, MM1.S; details: Homo sapiens, MM, single agent, 72 hours, read-out: Inhibition of Viability, EC50
Method: as §1

OCI-LY3 = assay: Cell Titer Glo viability assay, OCI-LY3; details: Homo sapiens; OCI-LY3, DLBCL; single agent; 72 hours; read-out: Inhibition of Viability, EC50
Method: as §1

OCI-LY7 = assay: Cell Titer Glo viability assay, OCI-LY7; details: Homo sapiens; OCI-LY7, DLBCL; single agent; 72 hours; read-out: Inhibition of Viability, EC50
Method: as §1

OCI-LY19 = assay: Cell Titer Glo viability assay, OCI-LY19; details: Homo sapiens; OCI-LY19, DLBCL; single agent; 72 hours; read-out: Inhibition of Viability, EC50
Method: as §1

RPMI-8266 = assay: Cell Titer Glo viability assay, RPMI-8266; details: RPMI8266; RPMI-8266, MM; single agent; 72 hours; read-out: Inhibition of Viability, EC50
Method: as §1

Row | EC50 (SU-DHL-6) | EC50 (OCI-LY4) | EC50 (Karpas 422) | EC50 (SU-DHL-10) | EC50 (MM1.S) | EC50 (OCI-LY3) | EC50 (OCI-LY7) | EC50 (OCI-LY19) | Compound | EC50 (WSU-NHL) | EC50 (Pfeiffer) | EC50 (WSU-FSCCL) | EC50 (KMS-11) | EC50 (OPM-2) | EC50 (Mino) | EC50 (RPMI-8266)
1 | > 3 µM | > 3 µM | > 3 µM | > 3 µM | > 3 µM | > 3 µM | > 3 µM | > 3 µM | c1cn2cc(-c3ccc4cn[nH]c4c3)nc(Nc3ccc(N4CCOCC4)cc3)c2n1 [Compound of Formula I, 6-(1H-indazol-6-yl)-N-(4-morpholinophenyl)imidazo[1,2-a]pyrazin-8-amine] | > 3 µM | > 3 µM | > 3 µM | > 3 µM | > 3 µM | > 3 µM | > 3 µM
2 | 0.012 µM | < 0.001 µM | 0.062 µM | 0.045 µM | 0.059 µM | 0.012 µM | 0.0046 µM | 0.0012 µM | CC[C@]1(O)C[C@H]2CN(CCc3c([nH]c4ccccc34)[C@@](C(=O)OC)(c3cc4c(cc3OC)N(C=O)[C@H]3[C@@](O)(C(=O)OC)[C@H](OC(C)=O)[C@]5(CC)C=CCN6CC[C@]43[C@@H]65)C2)C1 [Vincristine, vincristine] | 0.039 µM | 0.004 µM | 0.058 µM | 0.103 µM | 0.097 µM | 0.042 µM | 0.067 µM
